For data set [1], the system named is hTSLP (human total soluble lens protein). The data set is described as follows: Thioflavin-T fluorescence (total β-sheet content of protein mixture). The format is biochemical. As to conditions: added during incubation of hTSLP with hAβ1-42. The method, then: Fluorescence assays were conducted according to a standard protocols.
To determine whether the Aβ-induced aggregation of hTSLP was accompanied by conformational changes, the total β-sheet content of the protein mixture was measured by monitoring thioflavin-T fluorescence.

The test system of data set [2] is bTLP (bovine lens protein). Description: Spontaneous bovine lens protein (bTLP) aggregation, absorbance at 400 nm. The note with it: 37° C. in the dark. The format is biochemical. The method, then: Filtered phosphate buffered saline solution (pH 7.4) was treated with chelex and used to make stock solutions (10×) for all reagents (chemical or biological). Protein stock solution at a concentration of 10 mg/mL was prepared from the supernatant as described above. Stock solutions of chelators (ethylenediaminetetraacetic acid (EDTA), diethylenetriaminepentaacetic acid (DTPA), or triethylenetetramine (TETA)) were made up at a concentration of 2 mM freshly prepared in PBS. Stock solutions of Catalase and SOD were freshly prepared in PBS to have an activity of 5000 U/mL and 1000 U/mL respectively. Aβ was prepared as a suspension (100 uM) in PBS or HPLC water by sonicating for three minutes such that only monomers or dimers remained. Metals were prepared as a 10 μM solution; Cu is prepared as Cu:glycine (1:6) from copper sulfate.
(§1) Aggregation experiments were carried out in 96 well black micro titer plates, in the 2dark. Depending on the experiment, a combination of 20 μL of 10× lenticular protein (final concentration 1 mg/mL), 20 μL of 10× chelator solution (final concentration 200 μM), 20 μL of Catalase and/or SOD (final concentrations of 500 U/mL and 100 U/mL respectively), 20 μL of Aβ (final concentration of 10 μM), 20 μL of metal solution (final concentration 1 μM), and an amount of PBS buffer to bring the total volume in the well to 200 μL. hTLP aggregation or bTLP aggregation was monitored by observing an increase in absorbance at 400 nm using a Spectramax UV-V is spectrophotometer.
The influence of Reactive Oxygen Species ((ROS), Cu/Zn Superoxide Dismutase (SOD), Catalase (Cat)) on spontaneous bTLP aggregation was analyzed.

For data set [3] the following is noted: cited from earlier work.
Data set [4] deals with hTSLP (human total soluble lens protein). The data set is described as follows: Turbidity assay of human total soluble lens protein aggregation (absorbance at 400 nm). The format is biochemical. The note with it: for effect on Aβ-potentiated hTSLP aggregation: added during incubation of hTSLP with hAβ1-42; for promotion of hTSLP/hTLP aggregation: hTSLP 1 mg/ml, 37° C. in the dark, peptide added. On the procedure: Human lenses with intact capsules were dissected from whole globes and homogenized in 1 mL HPLC water. The homogenate was centrifuged for at 100,000×g for 1 hour at 4° C. and the supernatant utilized as hTLSP. Protein concentration was determined using a commercially available kit (Pierce). The final hTSLP concentration was 1 mg/mL.
Test solutions of hTSLP (1 mg/ml) were plated to a final volume of 200 μL per well in 96 well microtiter plates with black sidewalls. Peptides and/or inhibitors were added to these solutions as indicated. Plates were incubated in the dark at 37° C. under humidified, CO2-balanced conditions. Turbidity (optical density) was assessed on a SpectraMax-Plus spectrophotometric plate reader set at a wavelength of 400 nm.
as §1

For data set [5] the test system is unchanged. Description: Precipitation study of hTSLP incubated with hAβ1-42. As to conditions: added during incubation of hTSLP with hAβ1-42. The format is biochemical. On the procedure: Solutions of hTSLP (1 mg/ml) were incubated with or without hAβ1-42 (10 μM; 45 μg/ml) for 0 or 7 days. The resulting mixtures were then centrifuged at 15,000×g for 15 min and separated into pellet and supernatant fractions. The amount of pelleted protein was calculated by subtracting the supernatant protein concentration on Day 7 from the initial concentration on Day 0.

In the case of `O=C(O)CN(CCN(CC(=O)O)CC(=O)O)CCN(CC(=O)O)CC(=O)O` [DTPA, diethylenetriaminepentaacetic acid], in data set [1], the “effect on increased β-sheet content” value is recorded as “blocked”. The “effect on bTLP aggregation” value in data set [2] is recorded as “reduces the extent of bTLP aggregation”. In addition, the “absolute log Ks for Cu” value in data set [3] (Cu) was 22.0. The “absolute log Ks for Fe” value in data set [3] (Fe) is reported as 28.1. In addition, the “absolute log Ks for Zn” value in data set [3] (Zn) is recorded as 19.3. Also, the “effect on Aβ-potentiated hTSLP aggregation” value in data set [4] is listed as “abolished aggregation”. Further, the “effect on protein precipitation” value in data set [5] is recorded as “blocked”.

With `O=C(O)CN(CCN(CC(=O)O)CC(=O)O)CC(=O)O` [EDTA, ethylenediaminetetraacetic acid], the “effect on bTLP aggregation” value in data set [2] is given as “reduces the extent of bTLP aggregation”.

In the case of “recombinant human insulin: recombinant human insulin, negative control of approximately the same molecular weight as Aβ”, the “promotion of hTSLP/hTLP aggregation” value in data set [4] is reported as “none”; in data set [4] (listed as insulin), “no effect on hTLP aggregation”.

As for “superoxide dismutase: antioxidant scavenging enzyme”, the “effect on increased β-sheet content” value in data set [1] was “blocked”. In addition, the “effect on bTLP aggregation” value in data set [2] is reported as “reduces the extent of bTLP aggregation”. Further, in data set [4], the “effect on Aβ-potentiated hTSLP aggregation” value is “abolished aggregation”. For the same molecule, the “effect on protein precipitation” value in data set [5] is on record as “blocked”.

Consider “synthetic rat Aβ1-40: synthetic rat β-amyloid peptide 1-40, relatively redox inert control peptide (DAEFGHDSGFEVRHQKLVFFAEDVGSNKGAIIGLMVGGVV; Amyloid-beta protein 40; UniProt P08592 672-711, looked up)”, for which, in data set [4], the “promotion of hTSLP/hTLP aggregation” value is on record as “none”.

B1: catalase: antioxidant scavenging enzyme (protein, UniProt P04040 2-527, looked up)
Catalase: ADSRDPASDQMQHWKEQRAAQKADVLTTGAGNPVGDKLNVITVGPRGPLLVQDVVFTDEMAHFDRERIPERVVHAKGAGAFGYFEVTHDITKYSKAKVFEHIGKKTPIAVRFSTVAGESGSADTVRDPRGFAVKFYTEDGNWDLVGNNTPIFFIRDPILFPSFIHSQKRNPQTHLKDPDMVWDFWSLRPESLHQVSFLFSDRGIPDGHRHMNGYGSHTFKLVNANGEAVYCKFHYKTDQGIKNLSVEDAARLSQEDPDYGIRDLFNAIATGKYPSWTFYIQVMTFNQAETFPFNPFDLTKVWPHKDYPLIPVGKLVLNRNPVNYFAEVEQIAFDPSNMPPGIEASPDKMLQGRLFAYPDTHRHRLGPNYLHIPVNCPYRARVANYQRDGPMCMQDNQGGAPNYYPNSFGAPEQQPSALEHSIQYSGEVRRFNTANDDNVTQVRAFYVNVLNEEQRKRLCENIAGHLKDAQIFIQKKAVKNFTEVHPDYGSHIQALLDKYNAEKPKNAIHTFVQSGSHLAAREKANL
For the molecule B1, in data set [1], the “effect on increased β-sheet content” value is “blocked”. For the same molecule, the “effect on bTLP aggregation” value in data set [2] is given as “reduces the extent of bTLP aggregation”. The “effect on Aβ-potentiated hTSLP aggregation” value in data set [4] was “abolished aggregation”. In addition, in data set [5], the “effect on protein precipitation” value is recorded as “blocked”.
